Measured values as given in US12491251B2, “Degraders of cyclin-dependent kinase 7 (CDK7) and uses thereof” (DANA-FARBER CANCER INSTITUTE, INC., priority 2019, dated 2025).

The compounds below were run against T1, CDK7 (Homo sapiens, UniProt P50613) (assay: CDK7 degradation in Jurkat cells by immunoblot). Conditions: 1 μM compound, 6 hours, vs DMSO.
T1 construct: endogenous in cells; host or cells: Jurkat cells
Assay type: cell-based
Method: Jurkat cells were treated with DMSO or 1 μM of compounds 1-26 for 6 hours. Cells were then lysed in radioimmunoprecipitation assay (RIPA) buffer (Sigma® Life Science) containing protease/phosphatase inhibitor cocktail (Roche). The protein concentrations were measured by bicinchoninic acid assay (BCA) analysis (Pierce™). Equal amounts of protein were resolved by 4-12% Tris-Base gels (Invitrogen™), and then transferred to the immunoblot polyvinylidene difluoride (PVDF) membrane (BioRad), and immunoblotted with primary antibodies against CDK7 (cell signaling) and glyceraldehyde 3-phosphate dehydrogenase (GAPDH) (Cell Signaling Technology®), and then immunoblotted with IRDye®800-labeled goat anti-rabbit immunoglobulin G (IgG) and IRDye®680-labeled goat anti-mouse IgG (LI-COR®) secondary antibodies. The membranes were detected on an Odyssey® CLx system.

T1 sequence (P50613 2-346 limits assumed): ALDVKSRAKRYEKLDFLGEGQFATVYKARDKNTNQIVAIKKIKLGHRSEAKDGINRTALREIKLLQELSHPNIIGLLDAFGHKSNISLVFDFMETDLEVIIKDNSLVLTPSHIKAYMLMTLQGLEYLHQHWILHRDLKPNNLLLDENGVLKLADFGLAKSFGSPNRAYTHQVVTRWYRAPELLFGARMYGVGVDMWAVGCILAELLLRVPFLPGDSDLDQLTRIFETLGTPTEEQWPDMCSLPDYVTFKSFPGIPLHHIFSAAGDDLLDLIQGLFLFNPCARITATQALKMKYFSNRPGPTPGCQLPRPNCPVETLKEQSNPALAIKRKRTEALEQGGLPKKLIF
T1 sequence (P51946 whole entry partner): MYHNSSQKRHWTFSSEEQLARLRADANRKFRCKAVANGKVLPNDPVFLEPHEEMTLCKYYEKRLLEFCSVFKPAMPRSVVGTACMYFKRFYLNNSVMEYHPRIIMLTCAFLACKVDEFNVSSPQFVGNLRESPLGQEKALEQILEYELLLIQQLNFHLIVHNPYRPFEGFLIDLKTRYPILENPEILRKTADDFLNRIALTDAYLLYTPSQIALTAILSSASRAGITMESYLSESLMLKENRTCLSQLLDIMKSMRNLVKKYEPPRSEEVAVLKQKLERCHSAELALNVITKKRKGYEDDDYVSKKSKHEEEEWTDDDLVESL
T1 sequence (P51948 whole entry partner): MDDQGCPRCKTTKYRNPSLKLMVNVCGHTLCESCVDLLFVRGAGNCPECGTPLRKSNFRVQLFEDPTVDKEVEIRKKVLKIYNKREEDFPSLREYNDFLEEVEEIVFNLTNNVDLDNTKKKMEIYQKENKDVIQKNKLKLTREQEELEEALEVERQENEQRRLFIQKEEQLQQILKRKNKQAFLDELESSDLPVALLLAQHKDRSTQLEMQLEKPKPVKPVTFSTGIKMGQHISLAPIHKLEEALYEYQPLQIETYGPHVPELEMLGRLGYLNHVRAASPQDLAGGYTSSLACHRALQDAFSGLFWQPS

Row | Structure (SMILES) | degradation of CDK7 (immunoblot)
1 | CN(C)C[C@@H](NC(=O)N1Cc2c(NC(=O)c3ccc(C(=O)NCCOCCOCCNc4cccc5c4C(=O)N(C4CCC(=O)NC4=O)C5=O)cc3)n[nH]c2C1(C)C)c1ccccc1 (stereo partly drawn) [Compound 26, N^1-(5-(((S)-2-(dimethylamino)-1-phenylethyl)carbamoyl)-6,6-dimethyl-1,4,5,6-tetrahydropyrrolo[3,4-c]pyrazol-3-yl)-N^4-(2-(2-(2-((2-(2,6-dioxopiperidin-3-yl)-1,3-dioxoisoindolin-4-yl)amino)ethoxy)ethoxy)ethyl)terephthalamide] | induced the degradation of CDK7
2 | CN(C)C[C@@H](NC(=O)N1Cc2c(NC(=O)c3ccc(C(=O)NCCCCCOc4cccc5c4C(=O)N(C4CCC(=O)NC4=O)C5=O)cc3)n[nH]c2C1(C)C)c1ccccc1 (stereo partly drawn) [Compound 8, N^1-(5-(((S)-2-(dimethylamino)-1-phenylethyl)carbamoyl)-6,6-dimethyl-1,4,5,6-tetrahydropyrrolo[3,4-c]pyrazol-3-yl)-N^4-(5-((2-(2,6-dioxopiperidin-3-yl)-1,3-dioxoisoindolin-4-yl)oxy)pentyl)terephthalamide] | induced the degradation of CDK7
3 | CN(C)C[C@@H](NC(=O)N1Cc2c(NC(=O)c3ccc(NC(=O)CCCNc4cccc5c4C(=O)N(C4CCC(=O)NC4=O)C5=O)cc3)n[nH]c2C1(C)C)c1ccccc1 (stereo partly drawn) [Compound 16, N—((S)-2-(dimethylamino)-1-phenylethyl)-3-(4-(4-((2-(2,6-dioxopiperidin-3-yl)-1,3-dioxoisoindolin-4-yl)amino)butanamido)benzamido)-6,6-dimethyl-4,6-dihydropyrrolo[3,4-c]pyrazole-5(1H)-carboxamide] | induced the degradation of CDK7
4 | CN(C)C[C@@H](NC(=O)N1Cc2c(NC(=O)c3ccc(C(=O)NCCCCC#Cc4cccc5c4C(=O)N(C4CCC(=O)NC4=O)C5=O)cc3)n[nH]c2C1(C)C)c1ccccc1 (stereo partly drawn) [Compound 7, N^1-(5-(((S)-2-(dimethylamino)-1-phenylethyl)carbamoyl)-6,6-dimethyl-1,4,5,6-tetrahydropyrrolo[3,4-c]pyrazol-3-yl)-N^4-(6-(2-(2,6-dioxopiperidin-3-yl)-1,3-dioxoisoindolin-4-yl)hex-5-yn-1-yl)terephthalamide] | induced the degradation of CDK7
5 | CN(C)C[C@@H](NC(=O)N1Cc2c(NC(=O)c3ccc(NC(=O)CCCCCCCCCCOc4cccc5c4C(=O)N(C4CCC(=O)NC4=O)C5=O)cc3)n[nH]c2C1(C)C)c1ccccc1 (stereo partly drawn) [Compound 10, N—((S)-2-(dimethylamino)-1-phenylethyl)-3-(4-(11-((2-(2,6-dioxopiperidin-3-yl)-1,3-dioxoisoindolin-4-yl)oxy)undecanamido)benzamido)-6,6-dimethyl-4,6-dihydropyrrolo[3,4-c]pyrazole-5(1H)-carboxamide] | induced the degradation of CDK7
6 | CN(C)C[C@@H](NC(=O)N1Cc2c(NC(=O)c3ccc(C(=O)NCCOCCOCCOCCNc4cccc5c4C(=O)N(C4CCC(=O)NC4=O)C5=O)cc3)n[nH]c2C1(C)C)c1ccccc1 (stereo partly drawn) [Compound 1, N1-(5-(((S)-2-(dimethylamino)-1-phenylethyl)carbamoyl)-6,6-dimethyl-1,4,5,6-tetrahydropyrrolo[3,4-c]pyrazol-3-yl)-N4-(2-(2-(2-(2-((2-(2,6-dioxopiperidin-3-yl)-1,3-dioxoisoindolin-4-yl)amino)ethoxy)ethoxy)ethoxy)ethyl)terephthalamide] | induced the degradation of CDK7

Continued, values first:

Row | degradation of CDK7 (immunoblot) | Structure (SMILES)
7 | induced the degradation of CDK7 | CN(C)C[C@@H](NC(=O)N1Cc2c(NC(=O)c3ccc(C(=O)NCCCCCCCCOc4cccc5c4C(=O)N(C4CCC(=O)NC4=O)C5=O)cc3)n[nH]c2C1(C)C)c1ccccc1 (stereo partly drawn) [Compound 9, N^1-(5-(((S)-2-(dimethylamino)-1-phenylethyl)carbamoyl)-6,6-dimethyl-1,4,5,6-tetrahydropyrrolo[3,4-c]pyrazol-3-yl)-N^4-(8-((2-(2,6-dioxopiperidin-3-yl)-1,3-dioxoisoindolin-4-yl)oxy)octyl)terephthalamide]
8 | induced the degradation of CDK7 | Cc1ncsc1-c1ccc([C@H](C)NC(=O)[C@@H]2C[C@@H](O)CN2C(=O)[C@@H](NC(=O)CCOCCOCCNC(=O)c2ccc(C(=O)Nc3n[nH]c4c3CN(C(=O)N[C@H](CN(C)C)c3ccccc3)C4(C)C)cc2)C(C)(C)C)cc1 [Compound 6]
9 | induced the degradation of CDK7 | Cc1ncsc1-c1ccc([C@H](C)NC(=O)[C@@H]2C[C@@H](O)CN2C(=O)[C@@H](NC(=O)CCCCCCCNC(=O)c2ccc(C(=O)Nc3n[nH]c4c3CN(C(=O)N[C@H](CN(C)C)c3ccccc3)C4(C)C)cc2)C(C)(C)C)cc1 [Compound 23, N^1-(5-(((S)-2-(dimethylamino)-1-phenylethyl)carbamoyl)-6,6-dimethyl-1,4,5,6-tetrahydropyrrolo[3,4-c]pyrazol-3-yl)-N^4-(8-(((S)-1-((2S,4R)-4-hydroxy-2-(((S)-1-(4-(4-methylthiazol-5-yl)phenyl)ethyl)carbamoyl)pyrrolidin-1-yl)-3,3-dimethyl-1-oxobutan-2-yl)amino)-8-oxooctyl)terephthalamide]
10 | induced the degradation of CDK7 | CN(C)C[C@@H](NC(=O)N1Cc2c(NC(=O)c3ccc(C(=O)NCCCCCCc4cccc5c4C(=O)N(C4CCC(=O)NC4=O)C5=O)cc3)n[nH]c2C1(C)C)c1ccccc1 (stereo partly drawn) [Compound 13, N^1-(5-(((S)-2-(dimethylamino)-1-phenylethyl)carbamoyl)-6,6-dimethyl-1,4,5,6-tetrahydropyrrolo[3,4-c]pyrazol-3-yl)-N^4-(6-(2-(2,6-dioxopiperidin-3-yl)-1,3-dioxoisoindolin-4-yl)hexyl)terephthalamide]
11 | induced the degradation of CDK7 | CN(C)C[C@@H](NC(=O)N1Cc2c(NC(=O)c3ccc(C(=O)NCCCCCNc4ccc5c(c4)C(=O)N(C4CCC(=O)NC4=O)C5=O)cc3)n[nH]c2C1(C)C)c1ccccc1 (stereo partly drawn) [Compound 21, N^1-(5-(((S)-2-(dimethylamino)-1-phenylethyl)carbamoyl)-6,6-dimethyl-1,4,5,6-tetrahydropyrrolo[3,4-c]pyrazol-3-yl)-N^4-(5-((2-(2,6-dioxopiperidin-3-yl)-1,3-dioxoisoindolin-5-yl)amino)pentyl)terephthalamide]
12 | induced the degradation of CDK7 | Cc1ncsc1-c1ccc([C@H](C)NC(=O)[C@@H]2C[C@@H](O)CN2C(=O)[C@@H](NC(=O)CCCCCCNC(=O)c2ccc(C(=O)Nc3n[nH]c4c3CN(C(=O)N[C@H](CN(C)C)c3ccccc3)C4(C)C)cc2)C(C)(C)C)cc1 [Compound 22, N^1-(5-(((S)-2-(dimethylamino)-1-phenylethyl)carbamoyl)-6,6-dimethyl-1,4,5,6-tetrahydropyrrolo[3,4-c]pyrazol-3-yl)-N^4-(7-(((S)-1-((2S,4R)-4-hydroxy-2-(((S)-1-(4-(4-methylthiazol-5-yl)phenyl)ethyl)carbamoyl)pyrrolidin-1-yl)-3,3-dimethyl-1-oxobutan-2-yl)amino)-7-oxoheptyl)terephthalamide]
13 | induced the degradation of CDK7 | Cc1ncsc1-c1ccc([C@H](C)NC(=O)[C@@H]2C[C@@H](O)CN2C(=O)[C@@H](NC(=O)CCOCCOCCOCCNC(=O)c2ccc(C(=O)Nc3n[nH]c4c3CN(C(=O)N[C@H](CN(C)C)c3ccccc3)C4(C)C)cc2)C(C)(C)C)cc1 [Compound 25, N^1-(5-(((S)-2-(dimethylamino)-1-phenylethyl)carbamoyl)-6,6-dimethyl-1,4,5,6-tetrahydropyrrolo[3,4-c]pyrazol-3-yl)-N^4—((S)-14-((2S,4R)-4-hydroxy-2-(((S)-1-(4-(4-methylthiazol-5-yl)phenyl)ethyl)carbamoyl)pyrrolidine-1-carbonyl)-15,15-dimethyl-12-oxo-3,6,9-trioxa-13-azahexadecyl)terephthalamide]
14 | induced the degradation of CDK7 | Cc1ncsc1-c1ccc([C@H](C)NC(=O)[C@@H]2C[C@@H](O)CN2C(=O)[C@@H](NC(=O)CCCCCNC(=O)c2ccc(C(=O)Nc3n[nH]c4c3CN(C(=O)N[C@H](CN(C)C)c3ccccc3)C4(C)C)cc2)C(C)(C)C)cc1 [Compound 12, N^1-(5-(((S)-2-(dimethylamino)-1-phenylethyl)carbamoyl)-6,6-dimethyl-1,4,5,6-tetrahydropyrrolo[3,4-c]pyrazol-3-yl)-N^4-(6-(((S)-1-((2S,4R)-4-hydroxy-2-(((S)-1-(4-(4-methylthiazol-5-yl)phenyl)ethyl)carbamoyl)pyrrolidin-1-yl)-3,3-dimethyl-1-oxobutan-2-yl)amino)-6-oxohexyl)terephthalamide]
15 | induced the degradation of CDK7 | Cc1ncsc1-c1ccc([C@H](C)NC(=O)[C@@H]2C[C@@H](O)CN2C(=O)[C@@H](NC(=O)CCOCCNC(=O)c2ccc(C(=O)Nc3n[nH]c4c3CN(C(=O)N[C@H](CN(C)C)c3ccccc3)C4(C)C)cc2)C(C)(C)C)cc1 [Compound 15, N^1-(5-(((S)-2-(dimethylamino)-1-phenylethyl)carbamoyl)-6,6-dimethyl-1,4,5,6-tetrahydropyrrolo[3,4-c]pyrazol-3-yl)-N^4-(2-(3-(((S)-1-((2S,4R)-4-hydroxy-2-(((S)-1-(4-(4-methylthiazol-5-yl)phenyl)ethyl)carbamoyl)pyrrolidin-1-yl)-3,3-dimethyl-1-oxobutan-2-yl)amino)-3-oxopropoxy)ethyl)terephthalamide]
